Results taken from patent publication US10300067B2, “Tetrahydropyridopyrimidine compound or salt thereof” (TAIHO PHARMACEUTICAL CO., LTD., priority 2014, dated 2019).

Key:
Format in all cases: cell-based
[1] = target: androgen receptor (Homo sapiens (Human), UniProt P10275, T878A); assay: Activity of reducing expression level of androgen receptor (Western blotting of LNCaP cell lysate); details: 48 hours
Method: AR positive human prostate cancer cells LNCaP were seeded in a clear bottom 6 well microplate (BD) at 3.5×10^5/well with phenol red free RPMI1640 containing 5% FBS (hereinbelow, the medium is referred to as an evaluation medium), and then cultured overnight. The culture was added with the evaluation medium containing the compound of Examples or the compound of Comparative Examples such that the final concentration of the compound of Examples or the compound of Comparative Examples was 10000 nmol/L, followed by culture for 48 hours. After culture for 48 hours, the medium was removed and the cells were washed with PBS and added with 0.1 mL of Lysis buffer (M-PER added with Protease Inhibitor Cocktail), followed by keeping at 4° C. for 20 minutes. After cell lysis, the cell solution was centrifuged to recover the supernatant as cell lysate. […] The antibody-reacting band (anti AR receptor) was quantified by LAS-3000 (FUJIFILM) using Super Signal West Pico Substrate (Thermo Scientific) as a detection reagent.

[2] = tested on: Human prostate cancer cells LNCaP; assay: Androgen-dependent inhibitory activity on proliferation of prostate cancer cells; details: 50% proliferation inhibition concentration, DHT 10 nmol/L, 72 hours, read-out: GI50 value
Method: Human prostate cancer cells LNCaP (Non-Patent Literature 5) having […] androgen receptor gene were seeded in a clear bottom 96 well microplate (BD) at 4.0×10^3/well with phenol red free RPMI1640 containing 5% DCC-FBS (hereinbelow, the medium is referred to as an evaluation medium), and then cultured overnight. The culture was added with the evaluation medium containing DHT (final concentration of DHT: 10 nmol/L) or the evaluation medium containing the compound of Examples or the compound of Comparative Examples (final concentration of the compound of Examples or the compound of Comparative Examples: 10, 30, 100, 300, 1000, 3000, 10000, or 30000 nmol/L), followed by culture for 72 hours. Then, the number of viable cells was counted. The number of viable cells was measured by using Cell Counting Kit-8 (DOJINDO LABORATORIES).

[3] = target: human androgen receptor (Homo sapiens (Human), UniProt P10275); assay: Antagonist activity for AR (pMMTV-luc reporter transcription activity in transfected COS-7 cells, DHT 1 nmol/L); details: 50% transcription activity inhibition concentration; COS-7 cells with pMMTV-luc and pEX-hAR, DHT 1 nmol/L, 24 hours
Method: Antagonist activity for AR was evaluated according to the following method. COS-7 cells (ATCC) were transfected with pMMTV-luc vector (reporter plasmid having, as an androgen response element, […] long terminal repeat) and pEX-hAR vector (human androgen receptor expression vector: which expresses human AR gene under control of CMV promoter) by using Nucleofector (registered trademark) Kit R (Lonza) as a transfection reagent and Amaxa (Lonza). The COS-7 cells obtained after transfection were seeded in a clear bottom 96 well microplate (BD) at 1.5×10^4/well with phenol red free RPMI1640 containing 10% charcoal-treated fetal bovine serum (hereinbelow, DCC-FBS) (hereinbelow, the medium is referred to as an evaluation medium), and then cultured overnight. […] Then, the transcription activity value was measured. The transcription activity was measured by using Bright-Glo™ Luciferase Assay System (Promega).

[4] = tested on: AR positive human prostate cancer cells VCaP; assay: Agonist activity for AR (cell proliferation rate of VCaP cells); details: 72 hours, 2 to 10000 nmol/L, more than 10% at any concentration = agonist activity for AR
Method: AR positive human prostate cancer cells VCaP (In Vivo 15:163-168, 2001) were seeded in a clear bottom 96 well microplate (BD) at 1.5×10^4/well with phenol red free RPMI1640 containing 5% DCC-FBS (hereinbelow, the medium is referred to as an evaluation medium), and then cultured overnight. The culture was added with the evaluation medium containing the compound of Examples or the compound of Comparative Examples (final concentration of the compound of Examples or the compound of Comparative Examples: 2, 5, 14, 41, 123, 370, 1111, 3333, or 10000 nmol/L), followed by culture for 72 hours. Then, the number of viable cells was counted (test group). As a control, the cells were cultured after being added with the evaluation medium only, and the number of viable cells was counted (control group). The number of viable cells was measured by using CellTiter-Glo™ Luminescent Cell Viability Assay (Promega). From the measured number of viable cells, cell proliferation rate with respect to the compound of Examples or the compound of Comparative Examples was calculated based on the number of viable cells measured in the case of using the evaluation medium only. Cell proliferation rate (%) =(Number of viable cells in test group−Number of viable cells in control group)/(Number of viable cells in control group)×100
By considering an error in the number of viable cells measured in the case of using the evaluation medium only, when the cell proliferation rate was more than 10% at any concentration of the 9 concentrations which had been evaluated, it was determined to have an agonist activity for AR.

Sequence of androgen receptor (P10275 whole entry T878A): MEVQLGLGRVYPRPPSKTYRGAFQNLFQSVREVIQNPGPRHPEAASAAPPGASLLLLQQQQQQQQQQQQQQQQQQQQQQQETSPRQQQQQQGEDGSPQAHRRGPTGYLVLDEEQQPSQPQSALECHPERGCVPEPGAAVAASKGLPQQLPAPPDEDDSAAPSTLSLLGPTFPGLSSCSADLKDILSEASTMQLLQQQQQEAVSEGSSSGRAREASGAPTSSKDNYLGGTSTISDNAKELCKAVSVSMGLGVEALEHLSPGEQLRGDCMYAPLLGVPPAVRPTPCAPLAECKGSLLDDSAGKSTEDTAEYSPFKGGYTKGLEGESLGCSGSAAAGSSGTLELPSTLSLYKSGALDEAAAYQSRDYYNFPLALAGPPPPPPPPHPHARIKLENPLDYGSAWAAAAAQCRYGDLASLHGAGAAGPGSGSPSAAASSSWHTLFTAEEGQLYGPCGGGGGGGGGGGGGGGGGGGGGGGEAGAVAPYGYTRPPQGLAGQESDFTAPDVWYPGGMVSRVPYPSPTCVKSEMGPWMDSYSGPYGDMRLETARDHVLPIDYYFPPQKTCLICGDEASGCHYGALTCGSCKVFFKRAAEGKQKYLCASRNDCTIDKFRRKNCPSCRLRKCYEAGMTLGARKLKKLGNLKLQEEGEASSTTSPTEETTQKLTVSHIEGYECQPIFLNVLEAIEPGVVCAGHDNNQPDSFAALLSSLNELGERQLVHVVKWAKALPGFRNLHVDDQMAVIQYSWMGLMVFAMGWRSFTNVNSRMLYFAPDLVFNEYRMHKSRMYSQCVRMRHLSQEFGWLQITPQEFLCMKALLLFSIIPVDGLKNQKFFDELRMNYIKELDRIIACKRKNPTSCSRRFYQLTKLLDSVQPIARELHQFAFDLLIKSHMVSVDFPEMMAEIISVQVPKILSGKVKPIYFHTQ
Sequence of human androgen receptor (P10275 whole entry): as the sequence (P10275 whole entry T878A) above, with A878T counted along it

| Structure (SMILES) | 10 μM AR expression reducing activity [1] | GI50 [2] [nM] | IC50 [3] [nM] | Cell proliferation rate (%) [4] [%] |
| --- | --- | --- | --- | --- |
| CC(C)(O)C1CCN(C(=O)c2coc(Nc3ncnc4c3CCN(c3ccc(C#N)c(C(F)(F)F)c3)C4)n2)CC1 [Example 41, 4-(4-((4-(4-(2-Hydroxypropan-2-yl)piperidin-1-carbonyl)oxazol-2-yl)amino)-5,6-dihydropyrido[3,4-d]pyrimidin-7(8H)-yl)-2-(trifluoromethyl)benzonitrile] | reduced (When the AR expression reducing activity is 50% or more, it is described as “reduced”) | 2400 | 1940 |  |
| CC(C)(O)CNC(=O)c1cnc(Nc2ncnc3c2CCN(c2ccc(C#N)c(C(F)(F)F)c2)C3)nc1 [Example 34, 2-((7-(4-cyano-3-(trifluoromethyl)phenyl)-5,6,7,8-tetrahydropyrido[3,4-d]pyrimidin-4-yl)amino)-N-(2-hydroxy-2-methylpropyl)pyrimidine-5-carboxamide] | reduced (When the AR expression reducing activity is 50% or more, it is described as “reduced”) | 3800 | 700 | 6.4 |
| N#Cc1ccc(N2CCc3c(ncnc3Nc3ccc(S(=O)(=O)NC4CC4)cn3)C2)cc1C(F)(F)F [Example 19, 6-((7-(4-Cyano-3-(trifluoromethyl)phenyl)-5,6,7,8-tetrahydropyrido[3,4-d]pyrimidin-4-yl)amino)-N-cyclopropylpyridine-3-sulfonamide] |  | 3000 | 130 |  |
| Cn1nccc1CCOc1ccc(Nc2ncnc3c2CCN(c2ccc(C#N)c(C(F)(F)F)c2)C3)cc1 [Example 14, 4-(4-((4-(2-(1-Methyl-1H-pyrazol-5-yl)ethoxy)phenyl)amino)-5,6-dihydropyrido[3,4-d]pyrimidin-7(8H)-yl)-2-(trifluoromethyl)benzonitrile] | reduced (When the AR expression reducing activity is 50% or more, it is described as “reduced”) | 1400 | 300 |  |
| N#Cc1ccc(N2CCc3c(ncnc3Nc3ccc(C(=O)NCc4nc(C(F)(F)F)cs4)cn3)C2)cc1C(F)(F)F [Example 36, 6-((7-(4-cyano-3-(trifluoromethyl)phenyl)-5,6,7,8-tetrahydropyrido[3,4-d]pyrimidin-4-yl)amino)-N-((4-(trifluoromethyl)thiazol-2-yl)methyl)nicotinamide] | reduced (When the AR expression reducing activity is 50% or more, it is described as “reduced”) | 300 | 170 | −1.9 |
| Cn1nccc1CCNC(=O)c1nnc(Nc2ncnc3c2CCN(c2ccc(C#N)c(C(F)(F)F)c2)C3)s1 [Example 35, 5-((7-(4-Cano-3-(trifluoromethyl)phenyl)-5,6,7,8-tetrahydropyrido[3,4-d]pyrimidin-4-yl)amino)-N-(2-(1-methyl-1H-pyrazol-5-yl)ethyl)-1,3,4-thiadiazol-2-carboxamide] |  | 1600 | 190 | 0.1 |
| N#Cc1ccc(N2CCc3c(ncnc3Nc3ccc(C(=O)NCC(F)F)nn3)C2)cc1C(F)(F)F [Example 28, 6-((7-(4-Cyano-3-(trifluoromethyl)phenyl)-5,6,7,8-tetrahydropyrido[3,4-d]pyrimidin-4-yl)amino)-N-(2,2-difluoroethyl)pyridazine-3-carboxamide] | reduced (When the AR expression reducing activity is 50% or more, it is described as “reduced”) | 3200 | 20 |  |
| N#Cc1ccc(N2CCc3c(ncnc3Nc3ccc(C(=O)NCC(F)(F)F)nn3)C2)cc1C(F)(F)F [Example 24, 6-((7-(4-Cyano-3-(trifluoromethyl)phenyl)-5,6,7,8-tetrahydropyrido[3,4-d]pyrimidin-4-yl)amino)-N-(2,2,2-trifluoroethyl)pyridazine-3-carboxamide] | reduced (When the AR expression reducing activity is 50% or more, it is described as “reduced”) | 3500 | 70 |  |
| N#Cc1ccc(N2CCc3c(ncnc3Nc3ccc(NC(=O)CC(F)(F)F)cn3)C2)cc1C(F)(F)F [Example 23, N-(6-((7-(4-Cano-3-(trifluoromethyl)phenyl)-5,6,7,8-tetrahydropyrido[3,4-d]pyrimidin-4-yl)amino)pyridin-3-yl)-3,3,3-trifluoropropanamide] |  | 1500 | 800 | 5.1 |
| CC(C)(O)CNC(=O)c1cnc(Nc2ncnc3c2CCN(c2ccc(C#N)c(C(F)(F)F)c2)C3)cn1 [Example 33, 5-((7-(4-Cyano-3-(trifluoromethyl)phenyl)-5,6,7,8-tetrahydropyrido[3,4-d]pyrimidin-4-yl)amino)-N-(2-hydroxy-2-methylpropyl)pyrazine-2-carboxamide] |  | 2100 | 310 | 4.4 |
| N#Cc1ccc(N2CCc3c(ncnc3Nc3ccc(C(=O)N[C@H]4CC[C@H](O)CC4)nn3)C2)cc1Cl [Example 29, 6-((7-(3-Chloro-4-cyanophenyl)-5,6,7,8-tetrahydropyrido[3,4-d]pyrimidin-4-yl)amino)-N-((1r,4r)-4-hydroxycyclohexyl)pyridazine-3-carboxamide] |  | 200 | 200 |  |
| CC(O)(CS(=O)(=O)c1ccc(F)cc1)C(=O)Nc1ccc(C#N)c(C(F)(F)F)c1 (stereo not shown) [Comparative Example 1, N-(4-Cyano-3-(trifluoromethyl)phenyl)-3-((4-fluorophenyl)sulfonyl)-2-hydroxy-2-methylpropanamide, reference compound] |  | 3500 |  | 39.7 |
| N#Cc1ccc(N2CCc3c(ncnc3Nc3ccc(C(=O)NCC4(O)CC4)nn3)C2)cc1C(F)(F)F [Example 30, 6-((7-(4-Cyano-3-(trifluoromethyl)phenyl)-5,6,7,8-tetrahydropyrido[3,4-d]pyrimidin-4-yl)amino)-N-((1-hydroxycyclopropyl)methyl)pyridazine-3-carboxamide] | reduced (When the AR expression reducing activity is 50% or more, it is described as “reduced”) | 3200 |  |  |
| C[C@@H](NC(=O)c1sc(Nc2ncnc3c2CCN(c2ccc(C#N)c(C(F)(F)F)c2)C3)nc1C(F)(F)F)c1nnco1 [Example 37, (R)—N-(1-(1,3,4-Oxadiazol-2-yl)ethyl)-2-((7-(4-cyano-3-(trifluoromethyl)phenyl)-5,6,7,8-tetrahydropyrido[3,4-d]pyrimidin-4-yl)amino)-4-(trifluoromethyl) thiazol-5-carboxamide] | reduced (When the AR expression reducing activity is 50% or more, it is described as “reduced”) |  | 170 | 0.9 |
| N#Cc1ccc(N2CCc3c(ncnc3Nc3ccc(C(=O)NCC(F)F)cn3)C2)cc1C(F)(F)F [Example 27, 6-((7-(4-Cyano-3-(trifluoromethyl)phenyl)-5,6,7,8-tetrahydropyrido[3,4-d]pyrimidin-4-yl)amino)-N-(2,2-difluoroethyl)nicotinamide] |  | 2800 | 90 | −0.2 |
